Strand notation (5' to 3'): a small letter for the sugar, then the base; units joined by * are phosphorothioate-linked, units joined directly phosphodiester-linked; [ ] holds rarer units or linkages, { } end groups; capitals alone tell only the bases. e = 2'-O-(2-methoxyethyl) (MOE); [5mC] = 5-methylcytosine; d = 2'-deoxy (DNA)
Experiments:
Type in all cases: in vivo, mouse
GCGR mRNA [1] = assay: GCGR mRNA levels in liver, C57/BL6 mice, single i.p. dose (Tables 35-41)
Method: Prior to quantitative PCR analysis, primer-probe sets specific to the target gene being measured were evaluated for their ability to be “multiplexed” with a GAPDH amplification reaction. After isolation the RNA is subjected to sequential reverse transcriptase (RT) reaction and real-time PCR, both of which are performed in the same well. RT and PCR reagents were obtained from Invitrogen Life Technologies (Carlsbad, Calif.). […] The RT reaction was carried out by incubation for 30 minutes at 48° C. Following a 10 minute incubation at 95° C. to activate the PLATIN 9M® Taq, 40 cycles of a two-step PCR protocol were carried out: 95° C. for 15 seconds (denaturation) followed by 60° C. for 1.5 minutes (annealing/extension).
170 μL of RiboGreen® working reagent (RiboGreen® reagent diluted 1:350 in 10 mM Tris-HCl, 1 mM EDTA, pH 7.5) was pipetted into a 96-well plate containing 30 μL purified cellular RNA. The plate was read in a CytoFluor® 4000 (PE Applied Biosystems) with excitation at 485 nm and emission at 530 nm.
(§1) Eight-week old male C57/BL6 mice (Jackson Laboratory, Bar Harbor, Me.) were administered a single dose of GCGR oligonucleotide by intraperitoneal injection at a concentration of […]. Each dose group consisted of four animals. Shown in Table 31 are the sequences, motifs and conjugates of the GCGR antisense compounds used in this study. Bolded residues indicate 2′-O-methoxyethyl (2′-MOE) moieties. All compounds comprise phosphorothioate internucleoside linkages throughout and each cytosine is replaced with 5-methylcytosine. ISIS 386626, ISIS 386627 and ISIS 386628 further comprise a C16 conjugate group attached to the 2′-O position of the sugar via a diamide linkage (2′-OCH2C(═O)N(H)(CH2)4N(H)C(═O)—(CH2)15CH3). GCGR antisense compounds target published GCGR sequences, including Genbank® Accession No. BC031885.1 (SEQ ID NO: 7).
(§2) Mice were sacrificed 48 hours following injection to determine serum transaminase levels (Table 32); liver, white adipose tissue (WAT), spleen and kidney weight (Table 33); cholesterol, triglyceride and glucose levels (Table 34); GCGR mRNA levels (Tables 35-41); and full-length and total oligonucleotide concentration in liver and kidney (Table 42). Endpoints were assessed using methods described herein and well known to those of ordinary skill in the art. Data is included from a pre-treatment bleed (Pre-Bleed) and post-treatment bleed (Post-Bleed).
(§3) To determine whether the phenotypic changes shown above correlated with a decrease in GCGR mRNA, treated animals were evaluated for levels of target mRNA in liver by real time PCR according to methods described herein. Tables 35 to 41 show results from direct comparisons of the antisense compounds targeting GCGR nucleic acid for their effect on target expression. Results are expressed as percent of saline control.

[2] = ALT & AST levels and toxic effects, GCGR study (Table 32); details: C57/BL6 mice, pre-treatment bleed
Method: as §1, §2

[3] = Organ weights: liver, WAT, spleen, kidney, GCGR study (Table 33); details: 48 h
Method: as §1, §2

[4] = Total and full-length antisense compound concentrations in liver and kidney, GCGR study (Table 42); details: 48 h after single i.p. dose
Method: as §1, §2
Treatment with the 2-10-2 MOE gapmers led to a significant dose-dependent decrease in GCGR mRNA expression. […] To determine whether the observed increase in efficiency with the short antisense compounds is due to an increase in antisense compound accumulation, full-length and total antisense compound concentration in the liver and kidney were determined.

GCGR mRNA [5] = assay: GCGR mRNA levels in liver and estimated ED50, C57/BL6 mice, single i.p. dose of MOE and methyleneoxy BNA gapmers (Tables 44, 45); details: liver
Method: Eight-week old male C57/BL6 mice (Jackson Laboratory, Bar Harbor, Me.) were administered a single dose of GCGR antisense compound by intraperitonel (i.p.) injection at a concentration of 10, 3.2, 1, and 0.32 μmol·kg. Each dose group consisted of four animals. Shown in Table 43 are the sequences, motifs and conjugates of the GCGR antisense compounds used in this study. Bolded residues indicate 2′-O-methoxyethyl (2′-MOE) modifications and the italicized residues indicate methyleneoxy (4′-CH2—O-2′) BNA modifications. All antisense compounds comprise phosphorothioate internucleoside linkages throughout and each cytosine is replaced with 5-methylcytosine. GCGR antisense compounds target published GCGR nucleic acids, including Genbank Accession No. BC031885.1 (SEQ ID NO: 7).
as §3, with “by RT,” for “by”, “Table 44” for “Tables 35 to 41”

148364 (antisense eT*eG*e[5mC]*eA*e[5mC]*dT*dT*dT*dG*dT*dG*dG*dT*dA*d[5mC]*e[5mC]*eA*eA*eG*eG) [compound 148364]
GCGR mRNA levels (GCGR mRNA [1]; 6.25 mg/kg, Table 35 comparison ISIS 148364 & ISIS 386626): 62% of saline control
GCGR mRNA levels (GCGR mRNA [1]; 6.25 mg/kg, Table 36 comparison ISIS 148364 & ISIS 386627): 86% of saline control
GCGR mRNA levels (GCGR mRNA [1]; 6.25 mg/kg, Table 37 comparison ISIS 148364 & ISIS 386593): 86% of saline control
GCGR mRNA levels (GCGR mRNA [1]; 6.25 mg/kg, Table 38 comparison ISIS 148364 & ISIS 386628): 101% of saline control
GCGR mRNA levels (GCGR mRNA [1]; 6.25 mg/kg, Table 39 comparison ISIS 148364 & ISIS 386594): 96% of saline control
GCGR mRNA levels (GCGR mRNA [1]; 12.5 mg/kg, Table 35 comparison ISIS 148364 & ISIS 386626): 87% of saline control
GCGR mRNA levels (GCGR mRNA [1]; 12.5 mg/kg, Table 36 comparison ISIS 148364 & ISIS 386627): 105% of saline control
GCGR mRNA levels (GCGR mRNA [1]; 12.5 mg/kg, Table 37 comparison ISIS 148364 & ISIS 386593): 105% of saline control
GCGR mRNA levels (GCGR mRNA [1]; 12.5 mg/kg, Table 38 comparison ISIS 148364 & ISIS 386628): 98% of saline control
GCGR mRNA levels (GCGR mRNA [1]; 12.5 mg/kg, Table 39 comparison ISIS 148364 & ISIS 386594): 102% of saline control
GCGR mRNA levels (GCGR mRNA [1]; 25 mg/kg, Table 35 comparison ISIS 148364 & ISIS 386626): 79% of saline control
GCGR mRNA levels (GCGR mRNA [1]; 25 mg/kg, Table 36 comparison ISIS 148364 & ISIS 386627): 87% of saline control
GCGR mRNA levels (GCGR mRNA [1]; 25 mg/kg, Table 37 comparison ISIS 148364 & ISIS 386593): 74% of saline control
GCGR mRNA levels (GCGR mRNA [1]; 25 mg/kg, Table 38 comparison ISIS 148364 & ISIS 386628): 77% of saline control
GCGR mRNA levels (GCGR mRNA [1]; 25 mg/kg, Table 39 comparison ISIS 148364 & ISIS 386594): 98% of saline control
GCGR mRNA levels (GCGR mRNA [1]; 50 mg/kg, Table 35 comparison ISIS 148364 & ISIS 386626): 36% of saline control
GCGR mRNA levels (GCGR mRNA [1]; 50 mg/kg, Table 36 comparison ISIS 148364 & ISIS 386627): 63% of saline control
GCGR mRNA levels (GCGR mRNA [1]; 50 mg/kg, Table 37 comparison ISIS 148364 & ISIS 386593): 56% of saline control
GCGR mRNA levels (GCGR mRNA [1]; 50 mg/kg, Table 38 comparison ISIS 148364 & ISIS 386628): 42% of saline control
GCGR mRNA levels (GCGR mRNA [1]; 50 mg/kg, Table 39 comparison ISIS 148364 & ISIS 386594): 59% of saline control
ALT Pre-Bleed ([2]; dose group 6.25 mg/kg): 28 IU/L
AST Pre-Bleed ([2]; dose group 6.25 mg/kg): 47 IU/L
ALT Pre-Bleed ([2]; dose group 12.5 mg/kg): 23 IU/L
AST Pre-Bleed ([2]; dose group 12.5 mg/kg): 44 IU/L
ALT Pre-Bleed ([2]; dose group 25 mg/kg): 26 IU/L
AST Pre-Bleed ([2]; dose group 25 mg/kg): 42 IU/L
ALT Pre-Bleed ([2]; dose group 50 mg/kg): 24 IU/L
AST Pre-Bleed ([2]; dose group 50 mg/kg): 40 IU/L
Organ Weights: Kidney ([3]; 6.25 mg/kg single i.p.): 104 % saline control
Organ Weights: Liver ([3]; 6.25 mg/kg single i.p.): 101 % saline control
Organ Weights: Spleen ([3]; 6.25 mg/kg single i.p.): 113 % saline control
Organ Weights: WAT ([3]; 6.25 mg/kg single i.p.): 89 % saline control
Organ Weights: Kidney ([3]; 12.5 mg/kg single i.p.): 108 % saline control
Organ Weights: Liver ([3]; 12.5 mg/kg single i.p.): 100 % saline control
Organ Weights: Spleen ([3]; 12.5 mg/kg single i.p.): 96 % saline control
Organ Weights: WAT ([3]; 12.5 mg/kg single i.p.): 84 % saline control
Organ Weights: Kidney ([3]; 25 mg/kg single i.p.): 112 % saline control
Organ Weights: Liver ([3]; 25 mg/kg single i.p.): 103 % saline control
Organ Weights: Spleen ([3]; 25 mg/kg single i.p.): 115 % saline control
Organ Weights: WAT ([3]; 25 mg/kg single i.p.): 75 % saline control
Organ Weights: Kidney ([3]; 50 mg/kg single i.p.): 108 % saline control
Organ Weights: Liver ([3]; 50 mg/kg single i.p.): 103 % saline control
Organ Weights: Spleen ([3]; 50 mg/kg single i.p.): 123 % saline control
Organ Weights: WAT ([3]; 50 mg/kg single i.p.): 80 % saline control
Full-length Antisense Compound Concentration Kidney ([4]; kidney): 58 µg/g
Total Antisense Compound Concentration Kidney ([4]; kidney): 90 µg/g
Full-length Antisense Compound Concentration Liver ([4]; liver): 46 µg/g
Total Antisense Compound Concentration Liver ([4]; liver): 54 µg/g
GCGR mRNA levels (GCGR mRNA [5]; 0.32 μmol/kg single i.p.): 105% of saline control
GCGR mRNA levels (GCGR mRNA [5]; 1 μmol/kg single i.p.): 106% of saline control
GCGR mRNA levels (GCGR mRNA [5]; 3.2 μmol/kg single i.p.): 73% of saline control
GCGR mRNA levels (GCGR mRNA [5]; 10 μmol/kg single i.p.): 38% of saline control

Source: patent US8372967B2, “Compounds and methods for modulating expression of GCCR” (Isis Pharmaceuticals, Inc., priority 2006, dated 2013)
